The values below come from patent publication US20250313546A1, “NUCLEIC ACID BINDERS” (UNIVERSITY OF STRATHCLYDE, priority 2022, published 2025).

Converted amounts (≈) assume the structure as drawn.

Experiment [1] relates to Staphylococcus aureus (ATCC 43300). Nature of the experiment: Antibacterial MIC, broth microdilution (CLSI). Format: cell-based. As to conditions: for S. aureus Selectivity Indices, Group / S. aureus Selectivity Index (SI): SI, IC50 (μM)/MIC80 (μM), HEK293 cytotoxicity; for MIC80: Staphylococcus aureus, ATCC43300, read-out: MIC80 S. aureus; for S. aureus Selectivity Index (SI): numeric value.

Experiment [2] relates to Enterococcus faecalis (ATCC 51299). Nature of the experiment: Antibacterial MIC, broth microdilution (CLSI). The format is cell-based. The following applies: for MIC80: Enterococcus faecalis, ATCC51299, read-out: MIC80 E. faecalis; for E. faecalis Selectivity Indices, Group / E. faecalis Selectivity Index (SI): SI, IC50 (μM)/MIC80 (μM), HEK293 cytotoxicity; for E. faecalis Selectivity Index (SI): numeric value. (In general: In broth dilution the organism is exposed to a series of concentrations in liquid medium.)

In experiment [3] the test system is Escherichia coli (ATCC 25922). Put plainly: Antibacterial MIC, broth microdilution (CLSI). Format: cell-based. The following applies: Escherichia coli, ATCC25922; read-out: MIC80 E. coli.
Experiment [4] concerns T. vaginalis. Put plainly: Trichomonas resorufin assay. Format: cell-based. As to conditions: Trichomonas vaginalis, read-out: IC50 T. vaginalis.
Experiment [5] relates to C. neoformans (F10025). As to conditions: Cryptococcus neoformans, read-out: MIC99 C. neoformans.
Experimental: (§2) The Minimum Inhibitory Concentration (MIC, at 99% inhibition) of the compounds was determined using the broth microdilution method as recommended by EUCAST (EUCAST Definitive Document E.DEF 9.3.2, Method for the determination of broth dilution minimum inhibitory concentrations of antifungal agents for conidia forming moulds and EUCAST Definitive Document E.DEF 7.3.2 Method for the determination of broth dilution minimum inhibitory concentrations of antifungal agents for yeasts).
The subject of experiment [6] is A. fumigatus A1160 (MFIG001). As to conditions: Aspergillus fumigatus, read-out: MIC99 A. fumigatus A1160.
Experiment [7] has as its system Rhizopus arrhizus (NEQAS12.35321). As to conditions: read-out: MIC99 Rhizopus arrhizus.
In experiment [8] the test system is Candida auris (H.17.157). The following applies: for MIC99: Candidozyma auris, read-out: MIC99 Candida auris.
Experimental: as §2
In experiment [9] the test system is Candida glabrata (ACPF3309). The following applies: for MIC99: Nakaseomyces glabratus, read-out: MIC99 Candida glabrata.
For experiment [10], the system named is T. equiperdum. Put plainly: Resazurin-based (Alamar blue) drug sensitivity assay. The following applies: Trypanosoma equiperdum, read-out: IC50 T. equiperdum. A general note: Alamar Blue is a resazurin reagent that responds to reducing activity.
Experimental: (§3) A detailed description of the procedure for evaluating activity against trypanosomes, using an Alamar Blue (resazurin) assay, is described below.
(§4) The bloodstream form (BSF) T. b. brucei s427 (see De Koning, H. P. et al., Mol. Biochem. Parasitol. 2000, 106, 181-185), T. evansi AntTat 3/3 (see Dean, S. et al., Proc. Natl. Acad. Sci. USA, 2013, 110, 14741-14746), and T. equiperdum (see Stewart, M. L. et al., Eukaryot. Cell, 2010, 9, 336-343) were cultured in HMI-9 medium (Life Technologies, Paisley, United Kingdom) supplemented with 10% heat inactivated Foetal Bovine Serum (FBS (PAA Laboratories Linz, Austria)), 14 μL/L β-mercaptoethanol (BDH, Dorset, UK), and 3.0 g/L NaHCO3 (Sigma-Aldrich) and adjusted to pH 7.4. These cell lines were maintained at 37° C. in a humidified, 5% CO2 environment.
(§5) A resazurin-based (Alamar blue) drug sensitivity assay was used to assess and compare the activity of standard trypanocides in the different cell lines investigated (see Gould, M. K. et al., Anal. Biochem., 2008, 382, 87-93). Briefly, 23 doubling dilutions of the test compound of the invention, starting at 100 μM, and a compound-free control were prepared in 100 μL medium in a 96-well white plate (Greiner Bio-one, Frickenhausen, Germany). The cells were adjusted to 2×10^4 cells/mL for T. b. brucei and T. equiperdum; 4×10^4 cells/mL for T. evansi; and 5×10^5 cells/mL for T. congolense in the appropriate medium. 100 μL of the adjusted cells was then added to the wells containing drug dilutions and incubated for 48 h under respective culture condition. Thereafter, 20 μL of 125 mg/mL resazurin sodium dye was added, and the plate was incubated for a further 24 h.
The test system of experiment [11] is T. evansi AntTat 3/3. The experiment is described as above. The following applies: read-out: IC50 T. evansi.
Experimental: as §3, §4, §5
The test system of experiment [12] is Genomic double stranded DNA (salmon). Put plainly: Fluorescence intercalator displacement (FID) assay, SYBR-safe probe. The following applies: 20 μM compound, 30° C., lower % = stronger binding. Put shortly:
(§1)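 Compound at 20 μM mixed with 3.76 ng/mL polyAU dsRNA or salmon genomic dsDNA and 12500-fold diluted SybrSafe in 1 mM phosphate buffer pH 7.4, then heated to 30 °C and fluorescence read. Reduction is expressed as normalised %, with nucleic acid plus probe as maximum and probe alone as minimum.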

Experiment [13] deals with PolyAU double stranded RNA. The description is as above. The following applies: 20 μM compound, 30° C., lower % = stronger binding. Put shortly:
as §1

Where [14] appears, read: SI, IC50 (μM)/MIC99 (μg/mL), HEK293 cytotoxicity, Alkyl Amidines and NH Pyrroles.
[15] abbreviates: SI, IC50 (μM)/MIC99 (μg/mL), HEK293 cytotoxicity, numeric value.

Turning to `CCCCCCCCCC[N+](C)(C)CCNC(=O)c1cc(NC(=O)c2cc(NC(=O)c3ccc(/C=C/c4cnc5ccccc5c4)cc3)cn2C)cn1C` [Ic9, (E)-N,N-dimethyl-N-(2-(1-methyl-4-(1-methyl-4-(4-(2-(quinolin-3-yl)vinyl)benzamido)-1H-pyrrole-2-carboxamido)-1H-pyrrole-2-carboxamido)ethyl)decan-1-aminium], in [1] (Quaternary ammoniums), the “S. aureus Selectivity Indices, Group” value is listed as “B (Group B: 2 < SI <= 5)”. The MIC80 (in general, the lowest concentration that inhibits either 80% of growth or 80% of the strains tested, depending on the study) in [1] was under 5 µM; in [2], 5 to 25 µM; in experiment [3] it was over 100 µM. In addition, in experiment [2] (Quaternary ammoniums), the “E. faecalis Selectivity Indices, Group” value is given as “B (Group B: 0.7 < SI <= 2)”. The IC50 (as a rule, the concentration that gives 50% inhibition) lay within 5000 to 50000 nM in experiment [4], 100 to 1000 nM in experiment [10] and 10 to 100 nM in experiment [11]. In addition, the MIC99 (in general, an inhibitory concentration at the 99% level, which refers to growth in some studies and to a panel of isolates in others) is 5 to 25 µg/mL in [5]; over 50 µg/mL in experiment [6]; over 50 µg/mL in experiment [7]; over 50 µg/mL in experiment [8]; over 50 µg/mL in [9].
For the molecule `O=C(Nc1c[nH]c(C(=O)Nc2c[nH]c(C(=O)NCCN3CCOCC3)c2)c1)c1ccc(/C=C/c2ccc3nonc3c2)cc1` [IIIb6, (E)-4-(4-(2-(benzo[c][1,2,5]oxadiazol-5-yl)vinyl)benzamido)-N-(5-((2-morpholinoethyl)carbamoyl)-1H-pyrrol-3-yl)-1H-pyrrole-2-carboxamide], the MIC80 in experiment [1] was 25 to 100 µM (≈ 14.9 to 59.5 µg/mL); in [2], over 100 µM; in experiment [3], over 100 µM. Further, the “% Normalised Fluorescence with gDNA” value in experiment [12] was found to be 84%. In [13], the “% Normalised Fluorescence with polyAU RNA” value was 53%. Moreover, the IC50 fell in the range of 10 to 100 nM in experiment [10] and 100 to 1000 nM in [11].
`Cn1cc(NC(=O)c2ccc(/C=C/c3cnc4ccccc4c3)cc2)cc1C(=O)Nc1c[nH]c(C(=O)NCCN2CCOCC2)c1` [IIIb4, (E)-1-methyl-N-(5-((2-morpholinoethyl)carbamoyl)-1H-pyrrol-3-yl)-4-(4-(2-(quinolin-3-yl)vinyl)benzamido)-1H-pyrrole-2-carboxamide]: the MIC80 is under 5 µM in [1], over 100 µM in experiment [2] and over 100 µM in [3]. The “% Normalised Fluorescence with gDNA” value in experiment [12] amounted to 37%. Further, the “% Normalised Fluorescence with polyAU RNA” value in experiment [13] amounted to 86%. The MIC99 in [5], in experiment [6] and in [9] was over 50 µg/mL each time. The IC50 in experiment [10] and in experiment [11] was 10 to 100 nM in each case.
Turning to `Cn1cc(NC(=O)c2cc(NC(=O)c3ccc(/C=C/c4cnc5ccccc5c4)cc3)cn2C)cc1C(N)=O` [IVa1, (E)-N-(5-carbamoyl-1-methyl-1H-pyrrol-3-yl)-1-methyl-4-(4-(2-(quinolin-3-yl)vinyl)benzamido)-1H-pyrrole-2-carboxamide], the “S. aureus Selectivity Indices, Group” value in experiment [1] (Amides) was “B (Group B: 1.4 < SI <= 3)”. For the same molecule, the values for the MIC80 in experiment [1], in experiment [2] and in [3] were under 5 µM, under 5 µM and over 100 µM, respectively. Moreover, the “E. faecalis Selectivity Indices, Group” value in [2] (Amides) is given as “C (Group: C, 1.5 < SI <= 5)”. Also, the “E. faecalis Selectivity Index (SI)” value in experiment [2] came out at 3. The “% Normalised Fluorescence with gDNA” value in experiment [12] was found to be 41%. In addition, the “% Normalised Fluorescence with polyAU RNA” value in [13] was 65%. Further, the IC50 in experiment [10] and in [11] was 100 to 1000 nM throughout.
Turning to `O=C(Nc1c[nH]c(C(=O)Nc2c[nH]c(C(=O)NCCN3CCOCC3)c2)c1)c1ccc(/C=C/c2cnc3ccccc3c2)cc1` [IIIb5, (E)-N-(2-morpholinoethyl)-4-(4-(4-(2-(quinolin-3-yl)vinyl)benzamido)-1H-pyrrole-2-carboxamido)-1H-pyrrole-2-carboxamide], the values for the MIC80 in experiment [1], in experiment [2] and in experiment [3] were under 5 µM, over 100 µM and over 100 µM, respectively. Moreover, the “% Normalised Fluorescence with gDNA” value in experiment [12] was determined as 49%. The “% Normalised Fluorescence with polyAU RNA” value in experiment [13] is recorded as 59%. For the same molecule, the MIC99 in experiment [5], in experiment [6] and in [9] was over 50 µg/mL each time. Besides, the IC50 in experiment [10] and in experiment [11] was 10 to 100 nM each time.
For the molecule `N=C(N)CCNC(=O)c1cc(NC(=O)c2cc(NC(=O)c3ccc(/C=C/c4ccc5nonc5c4)cc3)c[nH]2)c[nH]1` [IIIa8, (E)-N-(3-amino-3-iminopropyl)-4-(4-(4-(2-(benzo[c][1,2,5]oxadiazol-5-yl)vinyl)benzamido)-1H-pyrrole-2-carboxamido)-1H-pyrrole-2-carboxamide], the figures for the MIC80 in [1], in experiment [2] and in experiment [3] were 25 to 100 µM (≈ 13.8 to 55.2 µg/mL), over 100 µM and over 100 µM, respectively. Moreover, the “% Normalised Fluorescence with gDNA” value in [12] came out at 31%. Besides, the “% Normalised Fluorescence with polyAU RNA” value in experiment [13] is 10%. Besides, the MIC99 in experiment [5] was 5 to 25 µg/mL (≈ 9.07 to 45.3 µM); in [6], over 50 µg/mL; in experiment [7] it was over 50 µg/mL; in experiment [8], over 50 µg/mL; in [9], over 50 µg/mL. Besides, the IC50 in [10] is under 10 nM; in experiment [11], 10 to 100 nM.
In the case of `Cn1cc(NC(=O)c2cc(NC(=O)c3ccc(/C=C/c4ccc5nonc5c4)cc3)c[nH]2)cc1C(=O)NCCN1CCOCC1` [IIIb9, (E)-4-(4-(4-(2-(benzo[c][1,2,5]oxadiazol-5-yl)vinyl)benzamido)-1H-pyrrole-2-carboxamido)-1-methyl-N-(2-morpholinoethyl)-1H-pyrrole-2-carboxamide], the MIC80 in [1] was 5 to 25 µM (≈ 3.04 to 15.2 µg/mL); in [2], 5 to 25 µM (≈ 3.04 to 15.2 µg/mL); in experiment [3], over 100 µM. Moreover, in experiment [12], the “% Normalised Fluorescence with gDNA” value amounted to 55%. Further, the “% Normalised Fluorescence with polyAU RNA” value in experiment [13] is 30%. In addition, the IC50 lay in the range of 10 to 100 nM in [10] and 100 to 1000 nM in experiment [11].
In the case of `Cn1cc(NC(=O)c2ccc(/C=C/c3cnc4ccccc4c3)cc2)cc1C(=O)Nc1c[nH]c(C(=O)NCCC(=N)N)c1` [IIIa2, (E)-N-(5-((3-amino-3-iminopropyl)carbamoyl)-1H-pyrrol-3-yl)-1-methyl-4-(4-(2-(quinolin-3-yl)vinyl)benzamido)-1H-pyrrole-2-carboxamide], the “S. aureus Selectivity Indices, Group” value in experiment [1] (Alkyl Amidines and NH Pyrroles) is “D (D: SI > 10)”. For the same molecule, the “S. aureus Selectivity Index (SI)” value in experiment [1] was found to be 11. In addition, the values for the MIC80 in [1], in experiment [2] and in experiment [3] were under 5 µM, over 100 µM and over 100 µM, respectively. In experiment [12], the “% Normalised Fluorescence with gDNA” value is 17%. Besides, in experiment [13], the “% Normalised Fluorescence with polyAU RNA” value is on record as 21%. The MIC99 was under 5 µg/mL in [5]; 5 to 25 µg/mL (≈ 8.7 to 43.5 µM) in experiment [6]; 25 to 50 µg/mL (≈ 43.5 to 87 µM) in [7]; 5 to 25 µg/mL (≈ 8.7 to 43.5 µM) in [8]; under 5 µg/mL in experiment [9]. For the same molecule, in experiment [8] (setting [14]), the “C. auris Selectivity Indices, Group” value was “C (Group C 1 < SI <= 3)”. Further, the “C. auris Selectivity Index (SI)” value in [8] (setting [15]) is given as 3. In experiment [9] (setting [14]), the “C. glabrata Selectivity Indices, Group” value is “C (Group C 20 < SI <= 50)”. Besides, the “C. glabrata Selectivity Index (SI)” value in [9] (setting [15]) worked out at 47. Besides, the IC50 in experiment [10] and in experiment [11] was 10 to 100 nM in each case.
Turning to `CNC(=O)c1cc(NC(=O)c2cc(NC(=O)c3ccc(/C=C/c4cnc5ccccc5c4)cc3)cn2C)cn1C` [IVa2, (E)-N,1-dimethyl-4-(1-methyl-4-(4-(2-(quinolin-3-yl)vinyl)benzamido)-1H-pyrrole-2-carboxamido)-1H-pyrrole-2-carboxamide], the “S. aureus Selectivity Indices, Group” value in [1] (Amides) was “C (Group C: SI > 3)”. Also, in experiment [1], the “S. aureus Selectivity Index (SI)” value is 4. Also, the MIC80 was under 5 µM in experiment [1], under 5 µM in [2] and over 100 µM in experiment [3]. The “E. faecalis Selectivity Indices, Group” value in [2] (Amides) is “D (Group D: SI > 5)”. Besides, the “E. faecalis Selectivity Index (SI)” value in experiment [2] is recorded as 10. For the same molecule, the “% Normalised Fluorescence with gDNA” value in [12] was 29%. Further, in experiment [13], the “% Normalised Fluorescence with polyAU RNA” value is recorded as 73%. In addition, the half-maximal inhibitory concentration (IC50) in [10] and in [11] was 100 to 1000 nM throughout.
